Patent publication US6509367B1 (priority 2001, dated 2003)
Counter-ions that a name gives are not always drawn. Marks after values point to notes of the source that are not given here.

Assays:
mice [1] = test: Spontaneous activity in mice, compound in combination with 3 mg/kg Δ^9-THC (antagonism test); assay type: in vivo; conditions: at 3 mg/kg i.v., analog 10 min before Δ^9-THC
Procedure: (§1) Male ICR mice (25-32 g), purchased from Harlan (Dublin, Va.), were housed in groups of five. All animals were kept in a temperature-controlled (20-22° C.) environment with a 12-hour light-dark cycle (lights on at 7 a.m.). Separate mice were used for testing each drug dose in the in vivo behavioral procedures. The mice were maintained on a […] light: dark cycle, and received food and water ad libitum. Brain tissue for binding studies was obtained from male Sprague-Dawley rats (150-200 g) purchased from Harlan Laboratories (Dublin, Va.).
(§2) Measurement of spontaneous activity in mice occurred in standard activity chambers interfaced with a Digiscan Animal Activity Monitor (Omnitech Electronics, Inc., Columbus, Ohio). A standard tail-flick apparatus (described by Dewey et al., 1970) and a digital thermometer (Fisher Scientific, Pittsburgh, Pa.) were used to measure antinociception and rectal temperature, respectively.
(§3) All drugs were administered to the mice intravenously (i.v.) in the tail vein at a volume of 0.1 ml/10 g.
(§4) Maximum latency of 10 sec was used.

mice [2] = test: Tail-flick antinociception in mice, compound in combination with 3 mg/kg Δ^9-THC (antagonism test); assay type: in vivo; conditions: at 0.1 mg/kg i.v.
Procedure: as §1, §2, §3, §4

mice [3] = conditions: from Compton et al., 1996; cited from earlier work
mice [4] = conditions: from Compton et al., 1996; cited from earlier work; remark: listed apart in the source
mice [5] = conditions: from Compton et al., 1996; cited from earlier work; remark: listed apart in the source
mice [6] = test: Antagonism tests with 3 mg/kg Δ^9-THC, stated across the measures (locomotor, antinociception, hypothermia); conditions: 3 mg/kg Δ^9-THC i.v.

Cc1c(C(=O)NN2CCCCC2)nn(-c2ccc(Cl)cc2Cl)c1-c1ccc(Cl)cc1 [SR141716A, N-(piperidin-1-yl)-5-(4-chlorophenyl)-1-(2,4-dichlorophenyl)-4-methyl-1H-pyrazole-3-carboxamide hydrochloride, reference compound]
SA: maximum % antagonism of 3 mg/kg Δ^9-THC (mice [1]): 100% (3)
% MPE: maximum % antagonism of 3 mg/kg Δ^9-THC (mice [2]): 96% (0.1)
SA: > dose, 50% activity not achieved at this highest dose tested (mice [3]): >30^c mg/kg
TF: > dose, 50% activity not achieved at this highest dose tested (mice [4]): >30^c mg/kg
RT: > dose, 50% activity not achieved at this highest dose tested (mice [5]): >30^c mg/kg
antagonism of locomotor suppressant, antinociceptive and hypothermic effects of Δ^9-THC (in words) (mice [6]): fully antagonized
